In publication PMC10648875 (Antimicrobial Agents and Chemotherapy, 2023):
Values after ≈ are worked out from the molar mass of the structure shown. Read-outs that look alike come from different tables or passages of the source.

Tests used:
[1] = tested on: Escherichia coli NCTC 13353 (ECM7514), CTX-M-15; assay: MIC, reference strain; assay type: cell-based; settings: for MIC: CTX-M-15, BLI at the fixed concentration in brackets
Experimental: (§1) Other BL/BLI combinations were tested at their recommended BLI concentrations. MIC values for the partner antibiotics and BLIs alone were also determined (Table 2; Table S1). All investigational and marketed BLIs enhanced the potency of antibiotics according to their spectrum of inhibition. MIC values against CLSI-approved QC strains were within acceptable ranges for drugs and combinations tested (Table 3).
(§2) Isolates were tested for antimicrobial susceptibility using the broth microdilution methodology per CLSI M07 (2018) guidelines ([40]). JMI Laboratories produced frozen-form 96-well panels with cation-adjusted Mueller-Hinton broth as the testing medium. Current CLSI quality assurance practices were followed when performing the susceptibility tests. MIC values were validated by concurrently testing the following CLSI-recommended ([27]) QC reference strains: E. coli NCTC 13353 (CTX-M-15), Klebsiella pneumoniae ATCC BAA-2814 (KPC-3), Klebsiella pneumoniae ATCC BAA-1705 (KPC-2), and K. pneumoniae ATCC 700603 (SHV-18). The inoculum density during susceptibility testing was monitored by bacterial colony counts. Where applicable, QC ranges for tested reference strains were those approved or published by the CLSI ([27]). Meropenem was purchased from Carbosynth; ceftolozane was synthesized at Acme Bioscience, Palo Alto, CA, USA; all other antibiotics were from Sigma Aldrich. Xeruborbactam was synthesized at Qpex Biopharma, San Diego, CA, USA. Avibactam was purchased from eNovation, Chemicals LLC, Bridgewater, NJ, USA. Vaborbactam was synthesized at The Medicines Company, San Diego, CA. Relebactam, taniborbactam, and relebactam were synthesized at Acme Bioscience.

[2] = tested on: E. coli CDC 0069 (EC1106), NDM-1; assay: MIC, reference strain; assay type: cell-based; settings: BLI at the fixed concentration in brackets
Experimental: as §1
as §2, with “([27]).” for “([27]). Meropenem was purchased from Carbosynth; ceftolozane was synthesized at Acme Bioscience, Palo Alto, CA, USA; all other antibiotics were from Sigma Aldrich. Xeruborbactam was synthesized at Qpex Biopharma, San Diego, CA, USA. Avibactam was purchased from eNovation, Chemicals LLC, Bridgewater, NJ, USA. Vaborbactam was synthesized at The Medicines Company, San Diego, CA. Relebactam, taniborbactam, and relebactam were synthesized at Acme Bioscience.”

[3] = tested on: K. pneumoniae ATCC BAA-1705 (KPM1123), KPC-2; assay: MIC, reference strain; assay type: cell-based; settings: for MIC: KPC-2, BLI at the fixed concentration in brackets
Experimental: as §1
as §2, with “([27]).” for “([27]). Meropenem was purchased from Carbosynth; ceftolozane was synthesized at Acme Bioscience, Palo Alto, CA, USA; all other antibiotics were from Sigma Aldrich. Xeruborbactam was synthesized at Qpex Biopharma, San Diego, CA, USA. Avibactam was purchased from eNovation, Chemicals LLC, Bridgewater, NJ, USA. Vaborbactam was synthesized at The Medicines Company, San Diego, CA. Relebactam, taniborbactam, and relebactam were synthesized at Acme Bioscience.”

[4] = tested on: K. pneumoniae ATCC BAA-2814 (KP1074), KPC-3; assay: MIC, reference strain; assay type: cell-based; settings: for MIC: KPC-3, BLI at the fixed concentration in brackets
Experimental: as §1
as §2, with “([27]).” for “([27]). Meropenem was purchased from Carbosynth; ceftolozane was synthesized at Acme Bioscience, Palo Alto, CA, USA; all other antibiotics were from Sigma Aldrich. Xeruborbactam was synthesized at Qpex Biopharma, San Diego, CA, USA. Avibactam was purchased from eNovation, Chemicals LLC, Bridgewater, NJ, USA. Vaborbactam was synthesized at The Medicines Company, San Diego, CA. Relebactam, taniborbactam, and relebactam were synthesized at Acme Bioscience.”

[5] = tested on: K. pneumoniae CDC 0135 (KP1291), VIM-1; assay: MIC, reference strain; assay type: cell-based; settings: BLI at the fixed concentration in brackets
Experimental: as §1
as §2, with “([27]).” for “([27]). Meropenem was purchased from Carbosynth; ceftolozane was synthesized at Acme Bioscience, Palo Alto, CA, USA; all other antibiotics were from Sigma Aldrich. Xeruborbactam was synthesized at Qpex Biopharma, San Diego, CA, USA. Avibactam was purchased from eNovation, Chemicals LLC, Bridgewater, NJ, USA. Vaborbactam was synthesized at The Medicines Company, San Diego, CA. Relebactam, taniborbactam, and relebactam were synthesized at Acme Bioscience.”

[6] = tested on: Klebsiella pneumoniae ATCC 700603 (KPM2881), SHV-18; assay: MIC, reference strain; assay type: cell-based; settings: for MIC: SHV-18, BLI at the fixed concentration in brackets
Experimental: as §1
as §2, with “([27]).” for “([27]). Meropenem was purchased from Carbosynth; ceftolozane was synthesized at Acme Bioscience, Palo Alto, CA, USA; all other antibiotics were from Sigma Aldrich. Xeruborbactam was synthesized at Qpex Biopharma, San Diego, CA, USA. Avibactam was purchased from eNovation, Chemicals LLC, Bridgewater, NJ, USA. Vaborbactam was synthesized at The Medicines Company, San Diego, CA. Relebactam, taniborbactam, and relebactam were synthesized at Acme Bioscience.”

[7] = tested on: P. aeruginosa BAA-3197 (PA5257), KPC-2; assay: MIC, reference strain; assay type: cell-based; settings: for MIC: KPC-2, BLI at the fixed concentration in brackets
VIM-1 (lysate of KP1015) = molecular target: T1, VIM-1 (lysate of KP1015) (Pseudomonas aeruginosa, UniProt A0A0F7KYQ8); assay: IC50 of β-lactamase inhibition (imipenem cleavage) in cell lysates; assay type: biochemical, K. pneumoniae; settings: KP1015, VIM-1; imipenem cleavage; read-out: IC50 of β-lactamase inhibition in cell lysates
T1 construct: endogenous in cells; host or cells: K. pneumoniae KP1015

PAM4135 producing KPC-2 = assay: MIC, engineered isogenic strain; assay type: cell-based, P. aeruginosa; settings: KPC-2, class A; BLIs at fixed 4 µg/mL
PAM4842 producing PER-2 = assay: MIC, engineered isogenic strain; assay type: cell-based, P. aeruginosa; settings: PER-2, class A; BLIs at fixed 4 µg/mL
PAM4907 producing PER-4 = assay: MIC, engineered isogenic strain; assay type: cell-based, P. aeruginosa; settings: PER-4, class A; BLIs at fixed 4 µg/mL
PAM4908 producing VEB-1 = assay: MIC, engineered isogenic strain; assay type: cell-based, P. aeruginosa; settings: VEB-1, class A; BLIs at fixed 4 µg/mL
PAM4846 producing OXA-9 = assay: MIC, engineered isogenic strain; assay type: cell-based, P. aeruginosa; settings: OXA-9, class D; BLIs at fixed 4 µg/mL
PAM4917 producing NDM-7 = assay: MIC, engineered isogenic strain; assay type: cell-based, P. aeruginosa; settings: NDM-7, class B; BLIs at fixed 4 µg/mL
PAM4883 producing GIM-1 = assay: MIC, engineered isogenic strain; assay type: cell-based, P. aeruginosa; settings: GIM-1, class B; BLIs at fixed 4 µg/mL
PAM4885 producing SPM-1 = assay: MIC, engineered isogenic strain; assay type: cell-based, P. aeruginosa; settings: SPM-1, class B; BLIs at fixed 4 µg/mL
[8] = tested on: surveillance isolates of carbapenem-resistant strains of Enterobacterales; assay: MIC testing of SENTRY surveillance CRE isolates (Table 4, Table S4); assay type: cell-based; settings: for % Inhibited: at ≤8 µg/mL β-lactam (IMP/REL ≤1/4, MEM/VAB ≤4/8 (≤8/8) µg/mL), footnote b

`NCCN[C@H]1CC[C@H](CC(=O)N[C@H]2Cc3cccc(C(=O)O)c3OB2O)CC1` [Taniborbactam, taniborbactam] gave an MIC [1] greater than 64 µg/mL, an MIC [2] greater than 64 µg/mL and an MIC [3] greater than 64 µg/mL. It also gave an MIC [4] greater than 64 µg/mL, an MIC [5] greater than 64 µg/mL and an MIC [6] greater than 64 µg/mL. For the same compound, the MIC [7] was greater than 64 µg/mL and the IC50 (VIM-1 (lysate of KP1015)) was 190 ± 10 nM.
`CO/N=C(\C(=O)N[C@@H]1C(=O)N2C(C(=O)[O-])=C(C[N+]3(C)CCCC3)CS[C@H]12)c1csc(N)n1` [FEP, cefepime] showed an MIC (PAM4135 producing KPC-2) greater than 64 µg/mL, an MIC (PAM4842 producing PER-2) of 64 µg/mL (≈ 133 µM) and an MIC (PAM4907 producing PER-4) of 64 µg/mL (≈ 133 µM). For the same compound, the MIC (PAM4908 producing VEB-1) was greater than 64 µg/mL, the MIC (PAM4846 producing OXA-9) was 2 µg/mL (≈ 4.16 µM) and the MIC (PAM4917 producing NDM-7) was greater than 64 µg/mL. It also gave an MIC (PAM4883 producing GIM-1) of 8 µg/mL (≈ 16.6 µM), an MIC (PAM4885 producing SPM-1) greater than 64 µg/mL and an MIC ([1]; Escherichia coli, NCTC13353, read-out: MIC) greater than 64 µg/mL. The “MIC (number of observations)” value ([1]; Table S1, repeated QC testing) was 32 (1)-64(5)->128 (10) µg/ml, the MIC ([2]; Escherichia coli, read-out: MIC) was 64 µg/mL and the MIC ([3]; Klebsiella pneumoniae, ATCCBAA1705, read-out: MIC) was 32 µg/mL. For the same compound, the “MIC (number of observations)” value ([3]; Table S1, repeated QC testing) was 32 (40)->32(6) µg/ml, the MIC ([4]; Klebsiella pneumoniae, ATCCBAA2814, read-out: MIC) was greater than 64 µg/mL and the “MIC (number of observations)” value ([4]; Table S1, repeated QC testing) was greater than 32 µg/mL. For the same compound, the MIC ([5]; Klebsiella pneumoniae, read-out: MIC) was greater than 64 µg/mL, the MIC ([6]; Klebsiella pneumoniae, ATCC700603, read-out: MIC) was 1 µg/mL and the “MIC (number of observations)” value ([6]; Table S1, repeated QC testing) was 0.5(1)-1(8)-2(1)-4(1) µg/ml. The MIC ([7]; Pseudomonas aeruginosa, BAA3197, read-out: MIC) was greater than 64 µg/mL, the “MIC (number of observations)” value ([7]; Table S1, repeated QC testing) was greater than 128 µg/mL and the MIC50 [8] was greater than 32 µg/mL. The MIC90 [8] was greater than 32 µg/mL, the MIC50 ([8]; All surveillance CRE, read-out: MIC50) was greater than 32 µg/mL and the MIC90 ([8]; All surveillance CRE, read-out: MIC90) was greater than 32 µg/mL. The “% Inhibited” value ([8]; KPC subset) was 11.70%, the MIC50 ([8]; KPC subset, read-out: MIC50) was greater than 32 µg/mL and the MIC90 ([8]; KPC subset, read-out: MIC90) was greater than 32 µg/mL. The “% Inhibited” value ([8]; MBL subset) was 0.00%, the MIC50 ([8]; MBL subset, read-out: MIC50) was greater than 32 µg/mL and the MIC90 ([8]; MBL subset, read-out: MIC90) was greater than 32 µg/mL. For the same compound, the “% Inhibited” value ([8]; NDM subset) was 0.00%, the MIC50 ([8]; NDM subset, read-out: MIC50) was greater than 32 µg/mL and the MIC90 ([8]; NDM subset, read-out: MIC90) was greater than 32 µg/mL. The “% Inhibited” value ([8]; No MBL subset) was 15.50%, the MIC50 ([8]; No MBL subset, read-out: MIC50) was greater than 32 µg/mL and the MIC90 ([8]; No MBL subset, read-out: MIC90) was greater than 32 µg/mL. For the same compound, the “% Inhibited” value ([8]; Non-CP CRE subset) was 15.20%, the MIC50 ([8]; Non-CP CRE subset, read-out: MIC50) was greater than 32 µg/mL and the MIC90 ([8]; Non-CP CRE subset, read-out: MIC90) was greater than 32 µg/mL. For the same compound, the “% Inhibited” value ([8]; OXA-48 subset) was 21.50%, the MIC50 ([8]; OXA-48 subset, read-out: MIC50) was greater than 32 µg/mL and the MIC90 ([8]; OXA-48 subset, read-out: MIC90) was greater than 32 µg/mL. For the same compound, the “% Inhibited” value ([8]; VIM subset) was 0.00%, the MIC50 ([8]; VIM subset, read-out: MIC50) was 32 µg/mL (≈ 66.6 µM) and the MIC90 ([8]; VIM subset, read-out: MIC90) was greater than 32 µg/mL.
